{"source": "patent US20240398767A1", "about": "“INHIBITORS OF THE MTDH-SND1 PROTEIN COMPLEX FOR CANCER THERAPY” (The Trustees of Princeton University, priority 2021, published 2024)", "key": {"[1]": {"molecular_target": "T1, MTDH-SND1 interaction in SCP28 tumors (Homo sapiens, UniProt Q7KZF4)", "T1 construct": "SND1-NLuc and CLuc-MTDH flanked by BamH 1 and Not 1 restriction sites were inserted into pcDNA3.1 and pRVPTO (retrovrial) vectors; expressed in transfected cells; host or cells: SCP28 cells stably transduced with pRVPTO retroviral vectors (packaged in H29 cells); in culture (A5) or as orthotopic tumours in NSG mice (A11)", "T1 sequence (Q7KZF4 with tags, fused parts or gaps)": "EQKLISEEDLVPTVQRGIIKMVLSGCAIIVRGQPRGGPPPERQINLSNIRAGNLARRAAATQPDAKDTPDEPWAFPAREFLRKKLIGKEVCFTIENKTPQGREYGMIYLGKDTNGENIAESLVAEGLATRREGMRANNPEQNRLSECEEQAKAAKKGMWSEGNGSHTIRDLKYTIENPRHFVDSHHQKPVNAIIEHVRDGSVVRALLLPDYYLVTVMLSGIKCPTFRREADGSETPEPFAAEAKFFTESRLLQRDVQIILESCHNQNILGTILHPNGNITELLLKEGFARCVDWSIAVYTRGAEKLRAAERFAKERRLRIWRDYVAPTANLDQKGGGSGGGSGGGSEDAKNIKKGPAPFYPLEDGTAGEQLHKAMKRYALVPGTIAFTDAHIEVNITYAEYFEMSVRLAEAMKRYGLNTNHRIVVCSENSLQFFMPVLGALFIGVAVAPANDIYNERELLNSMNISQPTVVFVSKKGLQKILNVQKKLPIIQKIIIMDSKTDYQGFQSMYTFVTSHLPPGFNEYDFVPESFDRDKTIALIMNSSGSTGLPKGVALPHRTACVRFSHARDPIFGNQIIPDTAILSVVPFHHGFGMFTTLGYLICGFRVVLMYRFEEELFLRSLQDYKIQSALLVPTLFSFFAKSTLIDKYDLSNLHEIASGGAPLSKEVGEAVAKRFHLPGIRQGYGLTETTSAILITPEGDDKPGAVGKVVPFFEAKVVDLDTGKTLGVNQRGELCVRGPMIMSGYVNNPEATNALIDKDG", "assay": "In vivo split-luciferase bioluminescence in SCP28 tumors", "design": "species or system NSG female mice", "conditions": "0.25 mg or 0.5 mg via tail-vein injection, 30 min after treatment", "experimental": "FIG. 12A, NSG female mice were inoculated with 10 k of SCP28 cells that express split-luciferase components by MFP injection. Two weeks after injection, the mice were treated with 0.25 mg/mouse or 0.5 mg/mouse of C26-A6 via tail-vein injection. 30 min after the treatment, luciferase activity at primary tumors was measured.\nFIG. 12B, Luciferase activity at primary tumors from mice in FIG. 12A. Data represent mean±SEM. n=3 mice. Significance determined by one-way ANOVA analysis with Dunnett's test for multiple comparisons.\nTo test the in vivo blocking effect of C26-A6 on MTDH-SND1 interaction, mice with SCP28 tumors that stably express split-luciferase components were treated with vehicle, 0.25 mg or 0.5 mg of C26-A6 via tail-vein injection followed by bioluminescence imaging."}, "SCP28 xenograft tumor": {"tested_on": "SCP28 xenograft tumor", "assay": "SCP28 xenograft tumor model in NSG mice", "format": "in vivo", "conditions": "8 weeks treatment", "experimental": "FIG. 13A, NGS female mice injected with 2 k SCP28 cells orthotopically were subjected to vehicle or C26-A6 treatment after two weeks. Primary tumor volumes were measured.\nFIG. 13B, 8 weeks after treatment, tumor mass was assessed. Vehicle, n=10 mice; C26-A6, n=10 mice. Size bar, 2 cm.\nFIG. 13C, 8 weeks after treatment, lung metastasis was assessed. Vehicle, n=10 mice; C26-A6, n=10 mice. Size bar, 5 mm."}, "4TO7 lung metastases": {"tested_on": "4TO7 lung metastases", "assay": "Established 4TO7 lung macrometastases", "format": "in vivo, Balb/C females", "experimental": "For FIGS. 7A-7D, 2 k 4TO7 cells were injected into Balb/C females. 2 weeks after the injections, the mice were randomized based on lung metastasis that indicated by BLI, and were divided into four groups followed by vehicle, paclitaxel (Pac), and C26-A6 treatment alone or in combination. For Pac, the mice were treated with 20 mg/kg of Pac twice per week for the first two week and then once per week after that, For C26-A6, the mice were treated with 15 mg/kg of C26-A6 5 days per week. n=6 mice per group. Data represent mean±SEM.\nFIG. 7A, Representative mice right before the treatment (week 2) and at week 10 are shown.\nFIG. 7B, The BLI signal was quantified at week 2. Significance determined by one-way ANOVA analysis with Dunnett's test for multiple comparisons.\nFIG. 7C, The metastasis progression of each individual is shown.\nFIG. 7D, Survival rate in each group was analyzed. Significance determined by two-sided Log-rank test.\nLastly, to mimic the clinical scenario of adjuvant chemotherapy following surgical removal of the primary tumors, SCP28 mammary tumors were removed when they reached 5 mm in diameter, the mice were then randomly separated into four groups and subjected to the different treatment regimens as above. […] The mice were then treated with vehicle or paclitaxel and C26-A6 alone or in combination, and the metastasis progression was monitored by BLL."}}, "data": [{"compound": "COc1ccc(Cl)cc1S(=O)(=O)Nc1cccn2nc(C)nc12", "note": "[Analog C26-A6]", "values": [{"measurement": "MTDH-SND1 interaction in vivo (luciferase activity at primary tumors)", "setting": "[1]", "result": "blocks MTDH-SND1 interaction in vivo in a dose-dependent manner"}, {"measurement": "primary tumor growth and lung metastasis", "setting": "SCP28 xenograft tumor", "result": "confirmed"}, {"measurement": "metastatic growth (BLI)", "setting": "4TO7 lung metastases; Pac 20 mg/kg, C26-A6 15 mg/kg 5 days per week", "result": "slowed down metastatic growth"}, {"measurement": "metastasis shrinkage", "setting": "4TO7 lung metastases; six mice per group", "result": "did not result in metastasis shrinkage"}]}]}
